From patent US8324190B2, “Treatment of proliferative disorders with amino-substituted (E)-2,6- dialkoxystyryl 4-substituted benzylsulfones” (Temple University—Of The Commonwealth System of Higher …, priority 2002, dated 2012)

Experiments:
Experiment in all cases: Tumor cell viability assay, Trypan blue exclusion
Assay type in all cases: cell-based
Settings in all cases: cell viability after 96 hours
[1] = test system: breast adenocarcinoma cell line BT-20
Description: (§1) BT-20 is an estrogen-unresponsive cell line. NIH/3T3 and HFL are normal murine and human fibroblasts, respectively. BT-20, DLD-1 and H157 were grown in Dulbecco's modified Eagle's medium (DMEM) containing 10% fetal bovine serum supplemented with penicillin and streptomycin. DU145 was cultured in RPMI with 10% fetal bovine serum containing penicillin and streptomycin. NIH3T3 and HFL cells were grown in DMEM containing 10% calf serum supplemented with penicillin and streptomycin. Cells were plated at density levels of 1.0×10^5 cells per well in six-well plates. Cell cultures were maintained at 37° C. in a humidified atmosphere of 5% CO2. Cells were treated with compounds of the invention at various concentrations. Cell viability was determined after 96 hours by the Trypan blue exclusion method. […] The number of viable cells remaining after 96 hours of treatment was determined using hemacytometer following trypan blue staining. The number of viable cells has been plotted as the percent of Vehicle treated (control) cells.

[2] = test system: colorectal carcinoma cell line DLD-1
Description: as §1

[3] = test system: non-small cell lung carcinoma cell line H157
Description: as §1

[4] = test system: prostate carcinoma cell line DU-145
Description: as §1

Measured: IC50

COc1cc(OC)c(/C=C/S(=O)(=O)Cc2ccc(OC)c(S(=O)(=O)NCC(=O)O)c2)c(OC)c1 [Example 1, (E)-2,4,6-Trimethoxystyryl-3-(carboxymethylsulfamyl)-4-methoxybenzylsulfone]
< 10 µM: all assays above

COc1cc(OC)c(/C=C/S(=O)(=O)Cc2ccc(OC)c(NC(=O)CC(=O)O)c2)c(OC)c1 [Example 2, (E)-2,4,6-Trimethoxystyryl-3-(carboxyacetamido)-4-methoxy-benzylsulfone]
< 10 µM: all assays above

COc1cc(OC)c(/C=C/S(=O)(=O)Cc2ccc(OC)c(NC(=N)N)c2)c(OC)c1 [Example 3, (E)-2,4,6-Trimethoxystyryl-3-(guanidino)-4-methoxybenzyl-sulfone]
< 10 µM: all assays above

COc1cc(OC)c(/C=C/S(=O)(=O)Cc2ccc(OC)c(NCC(=O)O)c2)c(OC)c1 [Example 4, (E)-2,4,6-Trimethoxystyryl-3-(carboxymethylamino)-4-methoxy-benzylsulfone]
< 10 µM: all assays above

COc1cc(OC)c(/C=C/S(=O)(=O)Cc2ccc(OC)c(NC(=O)c3cc([N+](=O)[O-])cc([N+](=O)[O-])c3)c2)c(OC)c1 [Example 5, (E)-2,4,6-trimethoxystyryl-3-(3,5,dinitrobenzamido)-4-methoxy-benzylsulfone]
< 10 µM: all assays above

COc1cc(OC)c(/C=C/S(=O)(=O)Cc2ccc(OC)c(NC(=O)c3cc(N)cc(N)c3)c2)c(OC)c1 [Example 6, (E)-2,4,6-trimethoxystyryl-3-(3,5,diaminobenzamido)-4-methoxy-benzylsulfone]
< 10 µM: all assays above

COc1cc(OC)c(/C=C/S(=O)(=O)Cc2ccc(OC)c(NC(=O)CCl)c2)c(OC)c1 [Example 7, (E)-2,4,6-Trimethoxystyryl-3-(chloroacetamido)-4-methoxybenzyl-sulfone]
< 10 µM: all assays above

COc1cc(OC)c(/C=C/S(=O)(=O)Cc2ccc(OC)c(NC(=O)CN3CCN(C)CC3)c2)c(OC)c1 [Example 8]
< 10 µM: all assays above

COc1cc(OC)c(/C=C/S(=O)(=O)Cc2ccc(OC)c(NC(=O)c3ccccc3)c2)c(OC)c1 [Example 9, (E)-2,4,6-Trimethoxystyryl-3-(benzamido)-4-methoxybenzyl-sulfone]
< 10 µM: all assays above

COc1cc(OC)c(/C=C/S(=O)(=O)Cc2ccc(OC)c(NC(=O)c3ccc([N+](=O)[O-])cc3)c2)c(OC)c1 [Example 10, (E)-2,4,6-Trimethoxystyryl-3-(4-nitrobenzamido)-4-methoxy-benzylsulfone]
< 10 µM: all assays above

COc1cc(OC)c(/C=C/S(=O)(=O)Cc2ccc(OC)c(NC(N)=O)c2)c(OC)c1 [Example 16, (E)-2,4,6-Trimethoxystyryl-3-(ureido)-4-methoxybenzylsulfone]
< 10 µM: all assays above
